Test results: publication PMC9506414, “Novel 2,6,9-Trisubstituted Purines as Potent CDK Inhibitors Alleviating Trastuzumab-Resistance of HER2-Positive Breast Cancers” (Pharmaceuticals, 2022)

How the values were obtained:
Test in all cases: Kinome-wide inhibition profiling
Assay type in all cases: biochemical
[1] = target: T1, ACVRL1 (Homo sapiens, UniProt P37023)
T1 construct: purchased Reaction Biology Corp
Experimental: (§1) In vitro CDK12/cyclinK assays for all compounds and in vitro kinome-wide inhibition profiling of 30d at 10 μM were performed by a CRO company (Reaction Biology Corp., San Diego, CA, USA).

[2] = target: T2, ASK1 (Homo sapiens, UniProt Q99683)
T2 construct: purchased Reaction Biology Corp
Experimental: as §1

[3] = target: T3, AurkC (Homo sapiens, UniProt Q9UQB9)
T3 construct: purchased Reaction Biology Corp
Experimental: as §1

[4] = target: T4, BRK (Homo sapiens, UniProt Q13882)
T4 construct: purchased Reaction Biology Corp
Experimental: as §1

[5] = target: T5, CAMK2a (Homo sapiens, UniProt Q9UQM7)
T5 construct: purchased Reaction Biology Corp
Experimental: as §1

[6] = target: T6, CAMK2d (Homo sapiens, UniProt Q13557)
T6 construct: purchased Reaction Biology Corp
Experimental: as §1

[7] = target: T7, CDK3/cyclinE (Homo sapiens, UniProt Q00526)
T7 construct: purchased Reaction Biology Corp
Experimental: as §1

[8] = target: T8, CDK9/cyclinT1 (Homo sapiens, UniProt P50750)
T8 construct: purchased Reaction Biology Corp
Experimental: as §1

[9] = target: T9, CLK4 (Homo sapiens, UniProt Q9HAZ1)
T9 construct: purchased Reaction Biology Corp
Experimental: as §1

[10] = target: T10, CSNK1G2 (Homo sapiens, UniProt P78368)
T10 construct: purchased Reaction Biology Corp
Experimental: as §1

[11] = target: T11, DAPK3 (Homo sapiens, UniProt O43293)
T11 construct: purchased Reaction Biology Corp
Experimental: as §1

[12] = target: T12, DMPK2 (Homo sapiens, UniProt Q6DT37)
T12 construct: purchased Reaction Biology Corp
Experimental: as §1

[13] = target: T13, EPHA5 (Homo sapiens, UniProt P54756)
T13 construct: purchased Reaction Biology Corp
Experimental: as §1

[14] = target: T14, ERK2 (Homo sapiens, UniProt P28482)
T14 construct: purchased Reaction Biology Corp
Experimental: as §1

[15] = target: T15, FLT1 (Homo sapiens, UniProt P17948)
T15 construct: purchased Reaction Biology Corp
Experimental: as §1

[16] = target: T16, FRK (Homo sapiens, UniProt P42685)
T16 construct: purchased Reaction Biology Corp
Experimental: as §1

[17] = target: T17, FYN (Homo sapiens, UniProt P06241)
T17 construct: purchased Reaction Biology Corp
Experimental: as §1

[18] = target: T18, HIPK2 (Homo sapiens, UniProt Q9H2X6)
T18 construct: purchased Reaction Biology Corp
Experimental: as §1

[19] = target: T19, HIPK4 (Homo sapiens, UniProt Q8NE63)
T19 construct: purchased Reaction Biology Corp
Experimental: as §1

[20] = target: T20, HPK1 (Homo sapiens, UniProt Q92918)
T20 construct: purchased Reaction Biology Corp
Experimental: as §1

[21] = target: T21, LRRK2 (Homo sapiens, UniProt Q5S007)
T21 construct: purchased Reaction Biology Corp
Experimental: as §1

[22] = target: T22, LTK (Homo sapiens, UniProt P29376)
T22 construct: purchased Reaction Biology Corp
Experimental: as §1

[23] = target: T23, MAP4K4 (Homo sapiens, UniProt O95819)
T23 construct: purchased Reaction Biology Corp
Experimental: as §1

[24] = target: T24, MAP4K5 (Homo sapiens, UniProt Q9Y4K4)
T24 construct: purchased Reaction Biology Corp
Experimental: as §1

[25] = target: T25, MARK1 (Homo sapiens, UniProt Q9P0L2)
T25 construct: purchased Reaction Biology Corp
Experimental: as §1

[26] = target: T26, MLK2 (Homo sapiens, UniProt Q02779)
T26 construct: purchased Reaction Biology Corp
Experimental: as §1

[27] = target: T27, MLK4 (Homo sapiens, UniProt Q5TCX8)
T27 construct: purchased Reaction Biology Corp
Experimental: as §1

[28] = target: T28, MNK2 (Homo sapiens, UniProt Q9HBH9)
T28 construct: purchased Reaction Biology Corp
Experimental: as §1

[29] = target: T29, MYLK2 (Homo sapiens, UniProt Q9H1R3)
T29 construct: purchased Reaction Biology Corp
Experimental: as §1

[30] = target: T30, NEK5 (Homo sapiens, UniProt Q6P3R8)
T30 construct: purchased Reaction Biology Corp
Experimental: as §1

[31] = target: T31, PCTK3 (Homo sapiens, UniProt Q07002)
T31 construct: purchased Reaction Biology Corp
Experimental: as §1

[32] = target: T32, PHKg1 (Homo sapiens, UniProt Q16816)
T32 construct: purchased Reaction Biology Corp
Experimental: as §1

[33] = target: T33, PKAC-gamma (Homo sapiens, UniProt P22612)
T33 construct: purchased Reaction Biology Corp
Experimental: as §1

[34] = target: T34, PLK4 (Homo sapiens, UniProt O00444)
T34 construct: purchased Reaction Biology Corp
Experimental: as §1

[35] = target: T35, PRKD2 (Homo sapiens, UniProt Q9BZL6)
T35 construct: purchased Reaction Biology Corp
Experimental: as §1

[36] = target: T36, SBK1 (Homo sapiens, UniProt Q52WX2)
T36 construct: purchased Reaction Biology Corp
Experimental: as §1

[37] = target: T37, SNRK (Homo sapiens, UniProt Q9NRH2)
T37 construct: purchased Reaction Biology Corp
Experimental: as §1

[38] = target: T38, SRMS (Homo sapiens, UniProt Q9H3Y6)
T38 construct: purchased Reaction Biology Corp
Experimental: as §1

[39] = target: T39, SRPK1 (Homo sapiens, UniProt Q96SB4)
T39 construct: purchased Reaction Biology Corp
Experimental: as §1

[40] = target: T40, TRKA (Homo sapiens, UniProt P04629)
T40 construct: purchased Reaction Biology Corp
Experimental: as §1

[41] = target: T41, TXK (Homo sapiens, UniProt P42681)
T41 construct: purchased Reaction Biology Corp
Experimental: as §1

[42] = target: T42, WEE1 (Homo sapiens, UniProt P30291)
T42 construct: purchased Reaction Biology Corp
Experimental: as §1

[43] = target: T43, YSK4 (Homo sapiens, UniProt Q56UN5)
T43 construct: purchased Reaction Biology Corp
Experimental: as §1

T7 sequence (Q00526 whole entry): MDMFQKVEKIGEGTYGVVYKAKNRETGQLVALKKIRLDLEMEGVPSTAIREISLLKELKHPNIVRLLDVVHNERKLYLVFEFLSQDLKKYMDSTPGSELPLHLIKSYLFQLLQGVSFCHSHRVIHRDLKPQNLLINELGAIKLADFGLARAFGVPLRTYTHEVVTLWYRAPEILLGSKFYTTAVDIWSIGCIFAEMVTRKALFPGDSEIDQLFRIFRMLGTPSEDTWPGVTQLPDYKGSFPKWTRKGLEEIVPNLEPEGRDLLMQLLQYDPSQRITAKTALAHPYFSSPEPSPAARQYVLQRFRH
T7 sequence (P24864 whole entry partner): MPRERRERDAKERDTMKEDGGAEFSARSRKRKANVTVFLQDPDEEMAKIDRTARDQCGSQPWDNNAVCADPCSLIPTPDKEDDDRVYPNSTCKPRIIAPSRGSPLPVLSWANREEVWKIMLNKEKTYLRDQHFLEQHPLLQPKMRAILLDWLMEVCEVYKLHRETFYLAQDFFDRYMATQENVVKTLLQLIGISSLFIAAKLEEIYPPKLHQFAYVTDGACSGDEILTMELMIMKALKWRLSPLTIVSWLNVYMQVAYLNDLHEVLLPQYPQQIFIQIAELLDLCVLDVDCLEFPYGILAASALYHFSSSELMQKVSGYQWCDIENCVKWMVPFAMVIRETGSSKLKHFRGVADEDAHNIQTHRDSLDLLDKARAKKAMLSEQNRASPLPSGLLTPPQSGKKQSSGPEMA
T31 sequence (Q07002 whole entry): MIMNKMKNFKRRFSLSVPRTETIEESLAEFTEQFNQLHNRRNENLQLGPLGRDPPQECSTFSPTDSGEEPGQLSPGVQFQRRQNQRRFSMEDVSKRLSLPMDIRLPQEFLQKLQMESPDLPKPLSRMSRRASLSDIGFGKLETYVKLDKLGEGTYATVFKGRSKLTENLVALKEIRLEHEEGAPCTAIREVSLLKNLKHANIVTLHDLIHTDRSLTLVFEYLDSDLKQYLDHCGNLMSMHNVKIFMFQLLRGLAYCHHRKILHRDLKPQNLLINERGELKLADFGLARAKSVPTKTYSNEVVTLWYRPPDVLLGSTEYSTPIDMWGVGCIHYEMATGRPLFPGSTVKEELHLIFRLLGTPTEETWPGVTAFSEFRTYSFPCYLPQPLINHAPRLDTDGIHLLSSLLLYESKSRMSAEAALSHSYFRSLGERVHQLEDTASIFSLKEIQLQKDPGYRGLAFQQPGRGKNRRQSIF
T31 sequence (Q8ND76 whole entry partner): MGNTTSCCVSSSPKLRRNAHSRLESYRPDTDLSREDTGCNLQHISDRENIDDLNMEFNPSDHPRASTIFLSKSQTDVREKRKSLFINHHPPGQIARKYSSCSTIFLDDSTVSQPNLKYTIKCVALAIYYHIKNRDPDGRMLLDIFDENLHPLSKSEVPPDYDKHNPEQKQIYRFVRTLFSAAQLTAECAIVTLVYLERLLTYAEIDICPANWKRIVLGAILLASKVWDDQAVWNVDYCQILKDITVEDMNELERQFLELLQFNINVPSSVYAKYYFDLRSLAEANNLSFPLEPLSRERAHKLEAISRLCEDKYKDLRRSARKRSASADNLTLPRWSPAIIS
T8 sequence (P50750 whole entry): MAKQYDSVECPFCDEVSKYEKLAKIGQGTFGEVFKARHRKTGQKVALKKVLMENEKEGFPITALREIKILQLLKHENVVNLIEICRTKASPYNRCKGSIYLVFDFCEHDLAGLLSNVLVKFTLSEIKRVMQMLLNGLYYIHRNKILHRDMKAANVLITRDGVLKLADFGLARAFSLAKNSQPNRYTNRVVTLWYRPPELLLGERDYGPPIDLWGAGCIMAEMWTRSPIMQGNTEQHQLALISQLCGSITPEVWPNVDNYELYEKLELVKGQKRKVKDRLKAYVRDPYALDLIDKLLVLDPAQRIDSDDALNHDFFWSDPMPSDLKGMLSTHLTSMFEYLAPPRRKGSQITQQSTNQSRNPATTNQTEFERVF
T8 sequence (O60563 whole entry partner): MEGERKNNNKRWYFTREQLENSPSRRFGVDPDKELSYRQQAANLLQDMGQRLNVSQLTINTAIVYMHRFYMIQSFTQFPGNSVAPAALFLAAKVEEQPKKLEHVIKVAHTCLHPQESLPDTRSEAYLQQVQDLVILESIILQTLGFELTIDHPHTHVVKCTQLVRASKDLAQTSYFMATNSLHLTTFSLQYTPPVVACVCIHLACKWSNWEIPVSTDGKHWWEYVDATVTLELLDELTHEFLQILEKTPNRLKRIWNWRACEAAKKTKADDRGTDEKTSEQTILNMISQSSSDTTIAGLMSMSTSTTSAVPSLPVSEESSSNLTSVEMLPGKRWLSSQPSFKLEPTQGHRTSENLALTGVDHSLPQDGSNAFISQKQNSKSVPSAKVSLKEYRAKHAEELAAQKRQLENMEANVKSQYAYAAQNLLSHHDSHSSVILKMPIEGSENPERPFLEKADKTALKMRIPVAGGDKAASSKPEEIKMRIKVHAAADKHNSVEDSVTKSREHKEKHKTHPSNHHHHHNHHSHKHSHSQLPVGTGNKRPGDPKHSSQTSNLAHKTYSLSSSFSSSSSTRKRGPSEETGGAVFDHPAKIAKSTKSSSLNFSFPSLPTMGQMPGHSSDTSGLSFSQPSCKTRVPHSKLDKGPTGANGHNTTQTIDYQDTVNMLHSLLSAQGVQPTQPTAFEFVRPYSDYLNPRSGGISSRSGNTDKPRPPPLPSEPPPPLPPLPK
T30 sequence (Q6P3R8 whole entry): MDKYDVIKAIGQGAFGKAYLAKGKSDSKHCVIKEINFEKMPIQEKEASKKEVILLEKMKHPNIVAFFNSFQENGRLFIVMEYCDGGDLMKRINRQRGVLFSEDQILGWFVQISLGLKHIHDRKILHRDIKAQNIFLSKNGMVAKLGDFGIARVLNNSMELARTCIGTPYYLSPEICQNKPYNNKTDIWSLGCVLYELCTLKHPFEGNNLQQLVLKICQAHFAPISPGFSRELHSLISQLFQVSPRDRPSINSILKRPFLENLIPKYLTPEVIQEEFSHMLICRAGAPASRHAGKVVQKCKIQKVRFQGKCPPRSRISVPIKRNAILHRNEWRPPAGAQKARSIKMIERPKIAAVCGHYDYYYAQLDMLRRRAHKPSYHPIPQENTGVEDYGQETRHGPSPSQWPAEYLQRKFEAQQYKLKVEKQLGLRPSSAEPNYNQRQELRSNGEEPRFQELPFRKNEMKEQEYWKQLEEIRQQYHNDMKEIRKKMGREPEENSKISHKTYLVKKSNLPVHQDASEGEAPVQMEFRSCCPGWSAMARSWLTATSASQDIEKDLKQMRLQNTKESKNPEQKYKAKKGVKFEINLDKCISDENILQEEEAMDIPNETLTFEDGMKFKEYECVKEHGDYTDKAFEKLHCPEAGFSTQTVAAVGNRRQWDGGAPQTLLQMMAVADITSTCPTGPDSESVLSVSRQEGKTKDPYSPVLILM
T37 sequence (Q9NRH2 whole entry): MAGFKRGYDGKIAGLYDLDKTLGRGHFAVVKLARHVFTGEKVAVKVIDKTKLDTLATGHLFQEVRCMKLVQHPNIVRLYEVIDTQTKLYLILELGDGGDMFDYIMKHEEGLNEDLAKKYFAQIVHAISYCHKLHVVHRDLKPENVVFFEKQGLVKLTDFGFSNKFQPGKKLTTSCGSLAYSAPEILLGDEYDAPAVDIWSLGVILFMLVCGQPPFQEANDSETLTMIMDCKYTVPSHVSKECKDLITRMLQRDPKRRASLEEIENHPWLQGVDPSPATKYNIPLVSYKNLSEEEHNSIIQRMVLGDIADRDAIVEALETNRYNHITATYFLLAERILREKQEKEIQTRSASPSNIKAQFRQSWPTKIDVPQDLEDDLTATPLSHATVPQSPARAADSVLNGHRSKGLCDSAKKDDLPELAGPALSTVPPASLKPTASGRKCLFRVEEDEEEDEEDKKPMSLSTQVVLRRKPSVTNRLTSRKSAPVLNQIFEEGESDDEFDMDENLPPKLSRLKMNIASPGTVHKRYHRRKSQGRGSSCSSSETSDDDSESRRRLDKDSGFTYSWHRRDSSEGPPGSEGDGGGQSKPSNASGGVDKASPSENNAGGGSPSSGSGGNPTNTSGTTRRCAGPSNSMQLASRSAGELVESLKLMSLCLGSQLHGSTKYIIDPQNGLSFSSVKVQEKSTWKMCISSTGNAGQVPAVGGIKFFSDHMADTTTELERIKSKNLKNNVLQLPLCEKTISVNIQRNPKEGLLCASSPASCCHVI
T14 sequence (P28482 whole entry): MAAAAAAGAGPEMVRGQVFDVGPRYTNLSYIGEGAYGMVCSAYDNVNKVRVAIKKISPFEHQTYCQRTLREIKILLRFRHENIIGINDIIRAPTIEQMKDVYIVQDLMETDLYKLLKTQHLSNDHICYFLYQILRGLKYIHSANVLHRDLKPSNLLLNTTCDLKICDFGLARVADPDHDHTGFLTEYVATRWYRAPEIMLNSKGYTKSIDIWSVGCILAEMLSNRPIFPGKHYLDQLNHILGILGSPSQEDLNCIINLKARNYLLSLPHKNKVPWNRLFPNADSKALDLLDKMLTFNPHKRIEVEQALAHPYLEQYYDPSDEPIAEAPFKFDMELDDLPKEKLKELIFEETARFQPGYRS
T33 sequence (P22612 whole entry): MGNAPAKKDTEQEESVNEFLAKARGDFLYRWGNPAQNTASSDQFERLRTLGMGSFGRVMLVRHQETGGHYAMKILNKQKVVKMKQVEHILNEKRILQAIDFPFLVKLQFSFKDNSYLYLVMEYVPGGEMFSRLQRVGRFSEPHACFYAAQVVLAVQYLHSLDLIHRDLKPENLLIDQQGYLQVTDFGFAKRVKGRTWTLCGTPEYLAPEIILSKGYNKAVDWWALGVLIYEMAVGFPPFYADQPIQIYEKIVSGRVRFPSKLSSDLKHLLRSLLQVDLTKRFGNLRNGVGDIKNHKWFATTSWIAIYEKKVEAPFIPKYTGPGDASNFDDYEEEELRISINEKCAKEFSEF

CCn1cnc2c(NCc3ccc(-c4ccccn4)nc3)nc(-c3ccc(N)nc3)nc21 [Compound 30d, N-([2,2′-Bipyridin]-5-ylmethyl)-2-(6-aminopyridin-3-yl)-9-ethyl-9H-purin-6-amine]
remaining activity at 10 µM [1]: 105% | remaining activity at 10 µM [2]: 18.4% | remaining activity at 10 µM [3]: 25.5% | remaining activity at 10 µM [4]: 46.6% | remaining activity at 10 µM [5]: 64% | remaining activity at 10 µM [6]: 61.7% | inhibition at 10 µM [7]: > 95% | remaining activity at 10 µM [7]: 1% | inhibition at 10 µM [8]: > 95% | remaining activity at 10 µM [8]: 0.8% | remaining activity at 10 µM [9]: 28.7% | remaining activity at 10 µM [10]: 27% | remaining activity at 10 µM [11]: 80.8% | remaining activity at 10 µM [12]: 92.4% | remaining activity at 10 µM [13]: 5.9% | remaining activity at 10 µM [14]: 10.6% | remaining activity at 10 µM [15]: 36.3% | remaining activity at 10 µM [16]: 43.5% | remaining activity at 10 µM [17]: 81% | remaining activity at 10 µM [18]: 81.3% | remaining activity at 10 µM [19]: 43.9% | remaining activity at 10 µM [20]: 30.2% | remaining activity at 10 µM [21]: 17.7% | remaining activity at 10 µM [22]: 73.6% | remaining activity at 10 µM [23]: 103% | remaining activity at 10 µM [24]: 88.3% | remaining activity at 10 µM [25]: 81.5% | remaining activity at 10 µM [26]: 62.3% | remaining activity at 10 µM [27]: 114% | remaining activity at 10 µM [28]: 91.2% | remaining activity at 10 µM [29]: 60% | remaining activity at 10 µM [30]: 83.8% | inhibition at 10 µM ([31]; CDK18): > 95% | remaining activity at 10 µM ([31]; PCTK3 (listed as CDK18 in Figure 6)): 2.5% | remaining activity at 10 µM [32]: 16.5% | remaining activity at 10 µM [33]: 88.4% | remaining activity at 10 µM [34]: 83.4% | remaining activity at 10 µM [35]: 72.3% | remaining activity at 10 µM [36]: 94.5% | remaining activity at 10 µM [37]: 93% | remaining activity at 10 µM [38]: 96.8% | remaining activity at 10 µM [39]: 54.3% | remaining activity at 10 µM [40]: 28.7% | remaining activity at 10 µM [41]: 34.9% | remaining activity at 10 µM [42]: 90.2% | remaining activity at 10 µM [43]: 96.8%
